Assay results as given in US10201565B2, “Gas conditioning” (EndoSAT NV, priority 2010, dated 2019).
Converted amounts (≈) assume the structure as drawn. “And” between values parts separate entries of the source, which are not always exact repeats. Equal entries are not always repeated.

Experiments:
[1] = cited from earlier work; for solubilities: unit inferred
human patients = experiment: clinical trials of laparoscopy with conditioned pneumoperitoneum; type: in vivo; conditions: first trial, deep endometriosis surgery; trial group also 5 mg dexamethasone and hyalobarrier gel, humidification, cooling 30-32° C.
Procedure: In a further set of trials, human patients were treated operatively by laparoscopy using a pneumoperitoneum with 86% CO2, 10% of N2O and 4% of O2 in combination with full humidification and with a temperature maintained at 31° C. to 32° C. when entering the patient (conditioned group). Furthermore the peritoneal cavity was cooled to 30-32° C. using sprinkling of 2 ml/min of saline at room temperature and rinsing was performed using slightly heparinised saline. A comparison was made with a standard treatment, whereby a pneumoperitoneum with 100% CO2 was used (non-conditioned group). Flow rates were between 3 and 10 liter/min. In a first trial, patients were undergoing deep endometriosis surgery. The trial group received in addition 5 mg of dexamethasone and a hyalobarrier gel at the end of the procedure. […] A number of parameters were monitored such as postoperative pain, time to first flatus and time to first stools, and the CO2 resorbtion during pneumoperitoneum. […] In both trials CO2 resorbtion during surgery, postoperative pain assessed by VAS scales and pain killer intake and time to first flatus and time to first stools were monitored.
In both trials post operative pain was evaluated at 3 hours, 12 hours and daily for 4 days after surgery using a VAS scale (Visual Analog Pain Scale) and using the amount of pain killer intake. […]

adhesion formation [2] = conditions: 60 min pneumoperitoneum, 15 mmHg, humidified, 37° C.; scored one week later; average of four sites; listed as pure CO2
adhesion formation [3] = conditions: laparoscopic mouse model, background; cited from earlier work
adhesion formation [4] = experiment: open abdomen for 60 min with gas flow deep in the pelvis, adhesions; type: in vivo; conditions: gas flow of 1 l/min deep in the pelvis; control group with a lesion only

| Structure (SMILES) | solubility in water [1] [µg/mL] | solubilities [1] [g/L] | adhesion formation checked by repeat laparoscopy (human patients) | quantitative adhesion score (proportion of lesion covered by adhesions) (adhesion formation [2]) | total adhesion score (sum of extent, type, tenacity) (adhesion formation [2]) | adhesion formation (adhesion formation [3]) | adhesions after 60 min open abdomen (adhesion formation [4]) |
| --- | --- | --- | --- | --- | --- | --- | --- |
| O=O [Oxygen, oxygen] | 39.1 (≈ 1.22 mM) | 0.0232 |  |  |  |  |  |
| [N-]=[N+]=O [N2O, nitrous oxide] | 1500 (≈ 34.1 mM) | 1.5 |  |  |  |  |  |
| O=C=O [CO2, carbon dioxide] | 1450 (≈ 32.9 mM) | 1.45 | severe adhesions | 70±10% and 74±9% and 77±9% | 30±4 and 31±4 and 32±4 | increase adhesions five fold | decrease of these adhesions |
